# Like-named read-outs stand apart in the source and are kept apart here.
# What was measured:
# Assay type in all cases: binding
# [1] = target: T1, His-mTRIM21 PRYSPRY (Mus musculus, UniProt Q62191); test: SPR fragment screening and dose response, mouse TRIM21 PRY-SPRY
# T1 construct: mouse TRIM21 PRY-SPRY domain (residues V291-M470, UniProt-ID: Q62191); made in house; host or cells: E. coli BL21(DE3)
# T1 sequence (Q62191 291-470): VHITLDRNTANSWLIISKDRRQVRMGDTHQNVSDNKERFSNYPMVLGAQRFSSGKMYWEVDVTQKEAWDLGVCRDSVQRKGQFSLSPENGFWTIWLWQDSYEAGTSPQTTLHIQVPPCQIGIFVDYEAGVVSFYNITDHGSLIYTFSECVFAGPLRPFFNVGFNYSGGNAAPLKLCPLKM
# Method: (§1) His-mTRIM21 PRYSPRY and His-SUMO-hTRIM21 PRY-SPRY were immobilized onto flow channels (FC) FC2, FC3, and FC4 of a Series S sensor chip NTA (Cytiva). […] Proteins (10–20 µg mL^−1 in HBS-P+) were injected at 10 µL min^−1 to achieve response levels of 3500–4300 RU for mTRIM21 and 3600–4000 RU for hTRIM21. Flow channel 1 (FC1) was used as a reference surface. Surface deactivation and nickel stripping were achieved using 1 M ethanolamine and 350 mM ethylenediaminetetraacetic acid (EDTA), respectively.
# (§2) Fragment screening was conducted by injecting 500 µM fragments diluted in running buffer (HBS-P+ with 1 mM TCEP and 2% (v/v) dimethyl sulfoxide (DMSO)) over all flow-channels for 30 s at 30 µL/min^−1. To account for surface drift, 50 µM of a control compound (Suramin) was injected every 15 fragment injections, and blank injections were performed every 5 fragments. Responses were analyzed by blank subtraction, reference subtraction (FC1), solvent correction, molecular weight adjustment, and drift correction using Biacore T200 Evaluation Software v3.2.1. The binding threshold for fragment hits was set based on the Suramin-binding response level.
# The data was solvent-corrected, reference-subtracted (FC1), and blank-subtracted using the T200 Evaluation Software v3.2.1. Sensorgrams were subsequently replotted using Graphpad v.9 software.
# [2] = target: T2, His-SUMO-hTRIM21 PRY-SPRY (Homo sapiens, UniProt P19474); test: SPR fragment screening, human TRIM21 PRY-SPRY
# T2 construct: Human TRIM21 PRY-SPRY domain (residues V287-I465, UniProt-ID: P19474); made in house; host or cells: E. coli BL21(DE3)
# T2 sequence (P19474 287-465): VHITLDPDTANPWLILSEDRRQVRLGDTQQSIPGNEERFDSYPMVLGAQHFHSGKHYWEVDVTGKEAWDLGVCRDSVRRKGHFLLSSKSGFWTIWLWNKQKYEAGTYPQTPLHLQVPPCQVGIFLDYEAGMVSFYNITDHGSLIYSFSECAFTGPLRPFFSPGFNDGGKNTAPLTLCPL
# Method: as §1, §2
# [3] = target: T3, murine TRIM21 PRY-SPRY domain (Mus musculus, UniProt Q62191); test: Differential scanning fluorimetry (DSF, ΔTm), mouse TRIM21 PRY-SPRY domain
# T3 construct: mouse TRIM21 PRY-SPRY domain (residues V291-M470, UniProt-ID: Q62191); made in house; host or cells: E. coli BL21(DE3)
# T3 sequence (Q62191 291-470): T1 sequence (Q62191 291-470)
# Method: (§3) Briefly, recombinant murine and human TRIM21 PRY-SPRY domain at a concentration of 8 μM were mixed with 2 mM compound in their respective SEC buffer. SYPRO Orange (5000×, Invitrogen) was added as a fluorescence probe (1 µl per mL). Subsequently, temperature-dependent protein unfolding profiles were measured using the QuantStudio™ 5 realtime PCR machine (Thermo Fisher). Excitation and emission filters were set to 465 nm and 590 nm, respectively. The temperature was raised with a step rate of 3 °C per minute. Data points were analysed with the internal software (Thermal Shift SoftwareTM Version 1.4, Thermo Fisher) using the Boltzmann equation to determine the inflection point of the transition curve.
# [4] = target: T4, human TRIM21 PRY-SPRY domain (Homo sapiens, UniProt P19474); test: Differential scanning fluorimetry (DSF, ΔTm), human TRIM21 PRY-SPRY domain
# T4 construct: Human TRIM21 PRY-SPRY domain (residues V287-I465, UniProt-ID: P19474); His6 (N, cleaved yes); SUMO (N, cleaved yes); made in house; host or cells: E. coli BL21(DE3)
# T4 sequence (P19474 287-465): as above
# Method: as §3
# [5] = single dose 500 µM fragment, relative response, suramin reference threshold 100 relative RU
SMILES,"SPR mTRIM21 (Response) [1, 5]","SPR hTRIM21 (Response) [2, 5]","Tm-shift mTRIM21 ([3]; 2 mM compound, 8 μM protein) [°C]","Tm-Shift hTRIM21 ([4]; 2 mM compound, 8 μM protein) [°C]",SPR mTRIM21 (Response) [1],SPR hTRIM21 (Response) [2],Tm-shift mTRIM21 [3] [°C],Tm-Shift hTRIM21 [4] [°C]
CNS(=O)(=O)Cc1cc(C)on1 [Fragment Z763030030],,,,,42.23,44.17,-0.2,-0.1
CCOC(=O)CN1CCS(=O)(=O)CC1 [Fragment Z793778804],30.52,29.17,0,0.1,,,,
O=C(O)COCc1ccccc1 [Fragment Z993967070],,,,,63.84,56.18,-0.3,0
CN(C)C(=O)c1ccc2c(c1)CCCN2 [Fragment Z1222331430],,,,,51.36,70.74,-0.2,-0.2
Cl.O=C(c1cn[nH]c1)N1CCCC1 [Fragment Z1266933824],,,,,127.7,193.6,-0.3,-0.1
CCc1ncc(CNC)s1 [Fragment Z1267773633],58.5,45.3,-0.4,-0.4,,,,
CC(=O)N1CCCC2(CCCCCC2)C1 [Fragment Z1275599911],32.73,30.21,-1.3,-0.9,,,,
CC#CCN(C)C1CCS(=O)(=O)CC1 [Fragment Z1318110042],68.46,20.83,0.1,0,,,,
COC1CN(S(=O)(=O)N2CCCC2)C1 [Fragment Z1343518214],,,,,38.32,34.32,-0.1,0.2
c1cnc(N2CCC3(CCOC3)C2)cn1 (stereo not shown) [Fragment Z1401276297],374.2,640.3,0.2,0.6,,,,
CS(=O)(=O)NC1CCOC2(CCCC2)C1 (stereo not shown) [Fragment Z1446981563],27.71,28.35,-0.4,-0.1,,,,
CCc1csc(-c2c[nH]cn2)n1 [Fragment Z1530301542],39.06,45.06,-0.1,0.1,,,,
Cc1nsc(N2CCCNCC2)n1 [Fragment Z1578665941],154,59.22,-0.1,0.1,,,,
CC(=O)Nc1cc2c(cc1C)OCO2 [Fragment Z1635496816],140.9,148.8,0,0.1,,,,
CNC(=O)C1CNCCO1 (stereo not shown) [Fragment Z1636723439],142.5,46.15,0.4,0.1,,,,
CS(=O)(=O)NCC1CCNCC1 [Fragment Z1741966151],,,,,29.2,18.48,0.2,0.1
CN(C)c1noc(C2CCNCC2)n1 [Fragment Z1742054999],,,,,84.81,41.66,0,-0.2
Cc1cc(N2CCCCC2)nc(CO)n1 [Fragment Z1980894300],77.01,66.59,-0.2,0,,,,
CN(C)C(=O)N1CCOCC12CCOC2 (stereo not shown) [Fragment Z1998104358],,,,,24.94,21.66,0,0.1
CC(=O)N1C[C@H]2CC[C@H]1c1ccccc12 [Fragment Z2017861827],,,,,37.47,47.45,-0.7,-0.2

# Continued, in another order:
"SPR mTRIM21 (Response) [1, 5]","SPR hTRIM21 (Response) [2, 5]","Tm-shift mTRIM21 ([3]; 2 mM compound, 8 μM protein) [°C]","Tm-Shift hTRIM21 ([4]; 2 mM compound, 8 μM protein) [°C]",SMILES,SPR mTRIM21 (Response) [1],SPR hTRIM21 (Response) [2],Tm-shift mTRIM21 [3] [°C],Tm-Shift hTRIM21 [4] [°C]
24.2,20.05,-0.3,0,CC1CN(C(=O)c2cnsn2)C(C)CO1 (stereo not shown) [Fragment Z768399682],,,,
105,20.86,-0.1,-0.2,CN1CCOC(CNc2nccs2)C1 (stereo not shown) [Fragment Z1002247062],,,,
35.49,38.84,-0.1,0.5,NS(=O)(=O)c1ccccc1OC(F)F [Fragment Z1003146540],,,,
50.4,45.75,-0.3,-0.1,Cc1cc(Cn2nc(C)ccc2=O)on1 [Fragment Z1079512010],,,,
48.28,44.97,-0.2,-0.1,CCc1nc(Cn2ccccc2=O)no1 [Fragment Z1162778919],,,,
74.94,55.59,-0.4,-0.4,CN1CCC(Oc2cccc(F)c2)C1=O (stereo not shown) [Fragment Z1217960891],,,,
131.3,47.83,0.1,0,CN(C)c1ccncc1 [Fragment Z1245793018],,,,
53.11,50.74,0,-0.1,CCC(NC)c1ccncc1 (stereo not shown) [Fragment Z1250132788],,,,
85.46,39.64,0,-0.1,c1cc(NCC2CCCO2)ccn1 (stereo not shown) [Fragment Z1267882044],,,,
104.9,107.4,0,0.1,CC(=O)N1Cc2ccc(N)cc2C1 [Fragment Z1354416068],,,,
43.51,47.04,-0.3,-0.4,CC(CS(N)(=O)=O)c1ccccc1 (stereo not shown) [Fragment Z1407673036],,,,
54.86,55.11,-0.1,-0.1,CC(=O)NC1CNc2ccccc2C1 (stereo not shown) [Fragment Z1492796719],,,,
31.58,24.5,-0.9,-0.7,Cc1c(Cl)cccc1NC(=O)[C@@H]1CCCO1 [Fragment Z1545312521],,,,
60.76,40.64,-0.2,0,O=S1(=O)CCN(Cc2ccco2)CC1 [Fragment Z1568344634],,,,
107.8,122.6,-0.5,-0.8,OC1CN(C(c2ccccc2)c2ccccc2)C1 [Fragment Z1696844792],,,,
-42.9,-50.75,-1.6,-0.3,COC1CN(Cc2cncs2)CCC1C (stereo not shown) [Fragment Z1787761777],,,,
41.62,39.09,-0.2,0,CC(O)c1cnn(C2CCCC2)c1 (stereo not shown) [Fragment Z2004563941],,,,
